According to patent publication US20140335474A1, “FLOSS DEVICE, A METHOD OF FORMING THE FLOSS DEVICE AND A METHOD OF USING THE FLOSS DEVICE” (priority 2008, published 2014):

Test system: E. Coli (strain DH5α)
Assay: Testing of antimicrobial RXPIX: bacterial viability by turbidity of LB Broth
Type: cell-based
Conditions: 15 minutes fluid exchange at room temperature, then 2 ml LB Broth, 20 hours at 37° C., three replicates
Procedure: For each sample three replicate experiments were preformed. Briefly, a drop of the bacterium E. Coli (strain DH5α) was mixed with a small amount of a medium (Luria-Bertani Broth, or LB Broth) and allowed to exchange fluid with the floss device 10, which is named “RXPIX” for identification purposes in the following tests, for 15 minutes. After this period of time, 2 ml of LB Broth was added to each test tube and the bacteria were allowed to grow for 20 hours at 37° C. Observing the turbidity of the broth at this time assessed bacterial viability. Bacterial viability was also assessed analytically by measuring the absorbance of visible light (600 nm).
B. On Day 2, 1 micro liter of E. Coli cells was transferred to each 12×75 mm round bottom test tube for antimicrobial testing. In addition, 5 micro liters of fresh LB Broth were added to each test tube to allow for fluid exchange. […]
D. After 20 hours of incubation, bacterial viability was assessed. […]
E. To further characterize bacterial growth, the absorbance of 600 nm visible light was used to analytically measure turbidity. The broth from each sample was measured with a spectrophotometer equipped with a lamp emitting visible light.

SMILES: CCO [70% ethanol, ethanol]
- bacterial growth (turbidity of the LB Broth): no bacterial growth
- bacterial growth (turbidity of the LB Broth) (listed as 70% ethyl alcohol): not showing bacterial growth
